# Key:
# [1] = tested on: human proliferative or cytotoxic T cell responses; assay: Mixed leukocyte culture reactions (MLC); type: cell-based; conditions: 500 GIA units/ml
# Mouse L929 cells = assay: Effect on mouse L929 cells; type: cell-based; conditions: mouse L929 cells, sensitive to tumor necrosis factor
# Method: The ability of PBL-derived Oncostatin M to affect replication of a variety of cells was also investigated. Mouse L929 cells were insenstive to PBL-derived Oncostatin M using up to 1000 GIA units/ml. Growth of human fibroblasts, WI26, was stimulated by treatment with 1000 GIA units/ml. Normal human T-lymphocyte proliferation at 72 hours post mitogenesis was not affected by up to 500 GIA units/ml.
# A375 melanoma cells = assay: Soft agar colony inhibition assay (TGI); type: cell-based, human; conditions: 11 days; for # Colonies: untreated 106
# Method: A 0.5 ml base layer of 0.5% agar (Agar Noble; Difco Laboratories, Detroit, Mich.) in growth medium was added to 24-well Costar tissue culture plates. One-half ml 0.3% agar in growth medium containing 1 to 2.5×10^3 A375 cells or other cell line of interest at an appropriate cell density, and various concentrations of the factor to be tested were overlaid on the base layer of agar. The plates were incubated at 37° C. in a humidified atmosphere of 5% CO2 in air and refed after 7 days by addition of 0.5 ml of 0.3% agar in growth medium containing the same concentration of the factor to be tested as used previously. Colonies were enumerated unfixed and unstained. The number of colonies with greater than 6 cells were scored.
# A375 cells were plated in soft agar, with or without the indicated GIA units of Oncostatin M (see Table 3), as described above in Example 1C. The factor used was from a C18^3 propanol column fraction with peak tumor growth inhibitory activity (GIA). The number of colonies was enumerated at 11 days.
# WI26 fibroblasts = assay: Cell growth modulatory assay using 3H-thymidine incorporation into DNA (GIA); type: cell-based, human
# Method: (§1) The assays were performed in 96 flat well plates (Costar 3596). Human melanoma cells (A375) (3×10^3 /100 μl) or cells from another cell line of interest were at an appropriate cell density used. Cells in 100 μl growth medium were placed in each well. Three hours later, 100 μl of test sample in growth medium was added to each well. Plates were incubated at 37° C. for 3 days. Then 25 μl (0.5 μCi) of a solution of ^3 H-thymidine (specific activity 27 μCi/μg) was added to each well for the final 6 hours of incubation. The cells were then transferred to glass filter strips using a multiwell harvester (PHD Cell Harvester, Cambridge Technology, Inc.). The filters were transferred to scintillation vials. Two ml of scintillation fluid (ScientiVerse II, Fisher Scientific Co.) was added and the samples counted in a scintillation counter to quantitate ^3 H-thymidine incorporation.
# (§2) Human tumor cells (A375 melanoma cells, A549 lung cancer cells, HBT10 neuroblastoma cells, and SK-MEL28 melanoma cells) were seeded at 3×10^3 cells/well and normal fibroblasts (WI26 cells and WI38 cells) at 1.5×10^3 cells/well in 96-well plates. Various concentrations of purified Oncostatin M, obtained from the fraction from the C18^3 column with peak antiproliferative activity against A375 cells were used. The assay was performed as described in Example 1B above.
# SK-MEL28 melanoma cells = assay: as above; type: cell-based, human
# Method: as §1, §2
# WI38 fibroblasts = assay: as above; type: cell-based, human
# Method: as §1, §2
# [2] = tested on: γ-interferon-sensitive human tumor cell line; assay: Cytotoxic activity against a γ-interferon-sensitive tumor line; type: cell-based
substance,measurement,setting,value
Oncostatin M: Human polypeptide growth regulator produced by activated leukocytes; apparent molecular weight approximately 28 kD by PAGE,Proliferative or cytotoxic T cell responses in MLC,[1],does not suppress
same,Cytotoxic activity,Mouse L929 cells,lacks cytotoxic activity
same,% Inhibition of Colony Formation,A375 melanoma cells; 27 GIA Units/Well,89%
same,# Colonies,A375 melanoma cells; 27 GIA Units/Well,11
same,% Inhibition of Colony Formation,A375 melanoma cells; 45 GIA Units/Well,69%
same,# Colonies,A375 melanoma cells; 45 GIA Units/Well,32
same,% Inhibition of Colony Formation,A375 melanoma cells; 83 GIA Units/Well,94%
same,# Colonies,A375 melanoma cells; 83 GIA Units/Well,6
same,% Inhibition of Colony Formation,A375 melanoma cells; 250 GIA Units/Well,96%
same,# Colonies,A375 melanoma cells; 250 GIA Units/Well,4
same,% Stimulation of 3H-thymidine incorporated,"WI26 fibroblasts; Exp. 2, WI26, 3 GIA units/well",52%
same,% Stimulation of 3H-thymidine incorporated,"WI26 fibroblasts; Exp. 2, WI26, 9 GIA units/well",36%
same,% Stimulation of 3H-thymidine incorporated,"WI26 fibroblasts; Exp. 2, WI26, 27 GIA units/well",46%
same,Cytotoxic activity,WI26 fibroblasts; WI26 human fibroblasts,lacks cytotoxic activity
same,% Inhibition of 3H-thymidine incorporated,"SK-MEL28 melanoma cells; Exp. 4, SK-MEL28, 1 GIA units/well",11%
same,% Inhibition of 3H-thymidine incorporated,"SK-MEL28 melanoma cells; Exp. 4, SK-MEL28, 5 GIA units/well",25%
same,% Inhibition of 3H-thymidine incorporated,"SK-MEL28 melanoma cells; Exp. 4, SK-MEL28, 20 GIA units/well",44%
same,% Stimulation of 3H-thymidine incorporated,"WI38 fibroblasts; Exp. 1, WI38, 1 GIA units/well",46%
same,% Stimulation of 3H-thymidine incorporated,"WI38 fibroblasts; Exp. 1, WI38, 4 GIA units/well",30%
same,% Stimulation of 3H-thymidine incorporated,"WI38 fibroblasts; Exp. 1, WI38, 16 GIA units/well",25%
same,Cytotoxic activity,WI38 fibroblasts; WI38 human fibroblasts,lacks cytotoxic activity
same,Cytotoxic activity,[2],lacks cytotoxic activity

# From patent US5451506A, “Oncostatin M and novel compositions having anti-neoplastic activity” (Oncogen Limited Partnership, priority 1993, dated 1995)
